# Test results reported in patent US20110086797A1, “CONTROL OF SPORE GERMINATION” (priority 2007, published 2011).
# “Also recorded” adds a separate entry of the source. Where two headings read alike, the source gives them in different places.
# How the values were obtained:
# B. subtilis spores [1] = assay: Measurement of germination by loss of heat resistance; type: cell-based, Bacillus subtilis
# B. subtilis spores [2] = assay: Measurement of germination by fluorescence (Syto-9 dye); type: cell-based, Bacillus subtilis; settings: 1 μM Bryostatin
# [3] = test system: B. subtilis wild type spores; assay: Sensitivity to antibiotic (tetracycline) after stimulation of germination; settings: for % Loss in viable cells: germinant 60 min at 37° C. (muropeptide 40 μM, bryostatin 1 μM), then tetracycline 10 μg/ml 60 min, relative to no germinant
molecule,measurement,setting,value
CC(=O)N[C@H]1C(O)O[C@H](CO)[C@@H](O)[C@@H]1O[C@H](C)C(=O)N[C@@H](C)C(=O)N[C@H](CCC(=O)O)C(N)=O (mixture of isomers) [muramyl dipeptide],germination of wild type spores (result in words),B. subtilis spores [1],failed to induce germination
CCC/C=C/C=C/C(=O)O[C@H]1/C(=C/C(=O)OC)C[C@H]2C[C@H]([C@@H](C)O)OC(=O)C[C@H](O)C[C@@H]3C[C@H](OC(C)=O)C(C)(C)[C@](O)(C[C@@H]4C/C(=C/C(=O)OC)C[C@H](/C=C/C(C)(C)[C@]1(O)O2)O4)O3 [Bryostatin],Fluorescence Germination Results,"B. subtilis spores [2]; Wild-type spores, 5' at 37° C., excitation/emission 485/530",14331
same,Fluorescence Germination Results,"B. subtilis spores [2]; ΔprKC (kinase mutant) spores, 5' at 37° C., 485/530",5208
same,Fluorescence Germination Results,"B. subtilis spores [2]; ΔprpC (phosphatase mutant) spores, 5' at 37° C., 485/530",13183
same,Fluorescence Germination Results,"B. subtilis spores [2]; ΔprpC, PrpC (phosphatase mutant overexpressing phosphatase from an ectopic site) spores, 485/530",5529
same,germination of ΔprkC spores (result in words),B. subtilis spores [1],had no effect
same,maximum % germination,"B. subtilis spores [1]; […], 1.0 μM bryostatin, 60 min",~40%
same,% Loss in viable cells,[3],32 ± 7%
same,sensitivity of treated spores to antibiotics (result in words),"[3]; wild type B. subtilis spores, tetracycline and spectinomycin",become sensitive to the ribosomal antibiotics tetracycline and spectinomycin
O=C([O-])c1cccc(C(=O)[O-])n1.[Ca+2] [Ca^2+-dipicolinic acid],germination of ΔprkC spores (result in words),B. subtilis spores [1],still responded
C[C@@H](N)C(=O)O [D-alanine],inhibition of cell wall / peptidoglycan dependent germination (result in words),B. subtilis spores [1],did not block cell wall dependent germination
C[C@H](N)C(=O)O [L-alanine],germination of ΔprkC spores (result in words),B. subtilis spores [1],still responded
same,germination of ΔprkC spores (result in words),B. subtilis spores [1]; listed as alanine,still respond to alanine
"CCCCCCCCCCCCCC(=O)O[C@@H]1[C@@H](C)[C@@]2(O)[C@@H](C=C(CO)C[C@]3(O)C(=O)C(C)=C[C@@H]23)[C@@H]2C(C)(C)[C@]12OC(C)=O [PMA, phorbol-12-myristate-13-acetate]",germination of wild type spores (result in words),B. subtilis spores [1],chemically induces germination
CN[C@@H]1C[C@H]2O[C@@](C)([C@@H]1OC)n1c3ccccc3c3c4c(c5c6ccccc6n2c5c31)C(=O)NC4 [staurosporine],germination with increasing amounts of peptidoglycan in the presence of inhibitor,"B. subtilis spores [1]; 10 pM staurosporine, […]",did not increase germination
same,concentration as low as which significantly reduced peptidoglycan-dependent germination,"B. subtilis spores [1]; […], 100 ng/ml B. subtilis peptidoglycan, 60 min",10 pM
same,effect on L-alanine germination,B. subtilis spores [1]; data not shown,unaffected
Ala-D-γ-Glu-Dpm tripeptide,germination of wild type spores (result in words),B. subtilis spores [1]; wild type B. subtilis spores,failed to induce germination
GlcNAc-MurNAc tripeptide [Muropeptide],concentration as low as which led to germination,B. subtilis spores [1],1 µM
same,germination of ΔprkC spores (result in words),B. subtilis spores [1],failed to germinate
same,% Loss in viable cells,[3],72 ± 3%
Teleocidin,germination of wild type spores (result in words),B. subtilis spores [1],able to stimulate germination of only the wildtype spore; also recorded: stimulated germination of wildtype spores
same,germination of ΔprkC spores (result in words),B. subtilis spores [1],able to stimulate germination of only the wildtype spore
